Values quoted from earlier work, collected in US20070122482A1, “Method for preparing modified release pharmaceutical compositions” (priority 2003, published 2007).
Counter-ions that a name gives are not always drawn. Like-named read-outs stand apart in the source and are kept apart here.

How the values were obtained:
[1] = for Solubility in water: Table 1, Poorly-Soluble Drug Candidates; for Solubility In Water: Table 2, Poorly-Soluble Drugs with Low Bioavailability

Row | Molecule | Solubility in water [1] | other results
1 | CN1CCN(C2=Nc3cc(Cl)ccc3Nc3ccccc32)CC1 [Clozapine] | Slightly | 
2 | CC(=O)OC[C@H]1O[C@@H]([S-])[C@H](OC(C)=O)[C@@H](OC(C)=O)[C@@H]1OC(C)=O.CCP(CC)CC.[Au+] [Auranofin] |  | Bioavailability (in vivo): Low (15-25%); Solubility In Water [1]: Slightly soluble
3 | CCCC(CCC)C(=O)O [Divalproex] | Slightly | 
4 | CC[C@H]1OC(=O)[C@H](C)[C@@H](O[C@H]2C[C@@](C)(OC)[C@@H](O)[C@H](C)O2)[C@H](C)[C@@H](O[C@@H]2O[C@H](C)C[C@H](N(C)C)[C@H]2O)[C@](C)(OC)C[C@@H](C)C(=O)[C@H](C)[C@@H](O)[C@]1(C)O [Clarithromycin] | Insoluble | 
5 | OCCN1CCN(CCCN2c3ccccc3Sc3ccc(Cl)cc32)CC1 [Perphenazine] |  | Bioavailability (in words) (Table 2): Low
6 | OCCN1CCN(CCCN2c3ccccc3Sc3ccc(C(F)(F)F)cc32)CC1 [Fluphenazine] |  | Solubility In Water [1]: Insoluble
7 | COc1ccc2cc(CCC(C)=O)ccc2c1 [Nabumetone] | Insoluble | Solubility In Water [1]: Insoluble
8 | CC(=O)O[C@H]1C(=O)[C@@]2(C)[C@H]([C@H](OC(=O)c3ccccc3)[C@]3(O)C[C@H](OC(=O)[C@H](O)[C@@H](NC(=O)c4ccccc4)c4ccccc4)C(C)=C1C3(C)C)[C@]1(OC(C)=O)CO[C@@H]1C[C@@H]2O [Paclitaxel] | Insoluble | 
9 | CCOC(=O)[C@H](CCc1ccccc1)N[C@@H](C)C(=O)N1CCC[C@H]1C(=O)O [Enalapril] | Sparingly | 
10 | CO[C@]12C[C@@H](COC(=O)c3cncc(Br)c3)CN(C)[C@@H]1Cc1cn(C)c3cccc2c13 [Nicergoline] | Insoluble | 
11 | CN[C@H]1CC[C@@H](c2ccc(Cl)c(Cl)c2)c2ccccc21 [Sertraline] | Slightly | Solubility In Water [1]: Slightly soluble
12 | CCn1cc(C(=O)O)c(=O)c2cc(F)c(N3CCNCC3)cc21 [Norfloxacin] | Slightly | Solubility In Water [1]: Slightly soluble
13 | CN(C/C=C/C#CC(C)(C)C)Cc1cccc2ccccc12 [Terbinafine] | Slightly | 
14 | Cc1nnc2n1-c1ccc(Cl)cc1C(c1ccccc1)=NC2 [Alprazolam] | Insoluble | 
15 | Cc1cccc(Nc2ccccc2C(=O)O)c1C [Mefenamic acid] | Slightly | 
16 | CCCCCc1cc(O)c2c(c1)OC(C)(C)[C@@H]1CCC(C)=C[C@@H]21 [Dronabinol] |  | Solubility In Water [1]: Insoluble
17 | C#C[C@]1(O)CC[C@H]2[C@@H]3CCC4=Cc5oncc5C[C@]4(C)[C@H]3CC[C@@]21C [Danazol] |  | Bioavailability (in words) (Table 2): Low
18 | COc1ccc(CCN2CCC(Nc3nc4ccccc4n3Cc3ccc(F)cc3)CC2)cc1 [Astemizole] | Insoluble | Bioavailability (in words) (Table 2): Low-moderate; Solubility In Water [1]: Insoluble
19 | O=[N+]([O-])O[C@H]1CO[C@H]2[C@@H]1OC[C@H]2O[N+](=O)[O-] [Isosorbide dinitrate] | Sparingly | Solubility In Water [1]: Sparingly soluble
20 | CC(=O)N1CCN(c2ccc(OCC3COC(Cn4ccnc4)(c4ccc(Cl)cc4Cl)O3)cc2)CC1 (stereo not shown) [Ketoconazole] | Insoluble | 
21 | NC(N)=Nc1nc(CSCCC(N)=NS(N)(=O)=O)cs1 [Famotidine] | Slightly | Solubility In Water [1]: Slightly soluble
22 | OC(CCN1CCCCC1)(c1ccccc1)C1CC2C=CC1C2 (stereo not shown) [Biperiden] |  | Solubility In Water [1]: Sparingly soluble

Row | Molecule | Solubility in water [1] | other results
23 | COC(=O)C1=C(C)NC(C)=C(C(=O)OC(C)C)C1c1cccc2nonc12 (stereo not shown) [Isradipine] | Insoluble | Solubility In Water [1]: Insoluble
24 | CN1C(C(=O)Nc2ccccn2)=C(O)c2ccccc2S1(=O)=O [Piroxicam] | Sparingly | 
25 | CO/N=C(\C(=O)N[C@@H]1C(=O)N2C(C(=O)O)=C(COC(C)=O)CS[C@H]12)c1csc(N)n1 [Cefotaxime] | Sparingly | 
26 | CC(CCc1ccc(O)cc1)NCCc1ccc(O)c(O)c1 (stereo not shown) [Dobutamine] | Sparingly | 
27 | CCCC1O[C@@H]2C[C@H]3[C@@H]4CCC5=CC(=O)C=C[C@]5(C)[C@H]4[C@@H](O)C[C@]3(C)[C@]2(C(=O)CO)O1 (stereo partly shown) [Budesonide] | Sparingly | Bioavailability (Table 2): Low (˜15%); Solubility In Water [1]: Sparingly soluble
28 | Cc1c(OCC(F)(F)F)ccnc1C[S+]([O-])c1nc2ccccc2[nH]1 (stereo not shown) [Lansoprazole] | Insoluble | 
29 | CCc1cccc2c3c([nH]c12)C(CC)(CC(=O)O)OCC3 (stereo not shown) [Etodolac] | Insoluble | 
30 | CN1CCCC(n2nc(Cc3ccc(Cl)cc3)c3ccccc3c2=O)CC1 (stereo not shown) [Azelastine] | Insoluble | 
31 | C[C@@H]1C[C@H]2[C@@H]3CCC4=CC(=O)C=C[C@]4(C)[C@@]3(Cl)[C@@H](O)C[C@]2(C)[C@@]1(O)C(=O)CCl [Mometasone] | Insoluble | 
32 | CC(C)(C)NC(=O)[C@H]1CC[C@H]2[C@@H]3CC[C@H]4NC(=O)C=C[C@]4(C)[C@H]3CC[C@]12C [Finasteride] | Insoluble | 
33 | OC(Cn1cncn1)(Cn1cncn1)c1ccc(F)cc1F [Fluconazole] | Slightly | 
34 | NC(=O)N1c2ccccc2C=Cc2ccccc21 [Carbamazepine] | Insoluble | 
35 | C[C@]12CC[C@H]3[C@@H](CCC4=CC(=O)CC[C@@]43C)[C@@H]1CC[C@@H]2O [Testosterone] |  | Bioavailability (in words) (Table 2): Low; Solubility In Water [1]: Insoluble
36 | CC(=O)S[C@@H]1CC2=CC(=O)CC[C@]2(C)[C@H]2CC[C@@]3(C)[C@@H](CC[C@@]34CCC(=O)O4)[C@H]12 [Spironolactone] |  | Solubility In Water [1]: Insoluble
37 | O=C1NC(=O)C(c2ccccc2)(c2ccccc2)N1 [Phenytoin] | Insoluble | 
38 | CN1CCC[C@@H]1CCO[C@](C)(c1ccccc1)c1ccc(Cl)cc1 [Clemastine fumarate] |  | Bioavailability (Table 2): Low (˜39%); Solubility In Water [1]: Slightly soluble
39 | O=C(O)Cc1ccccc1Nc1c(Cl)cccc1Cl [Diclofenac sodium] | Sparingly | 
40 | C=CCC1(CC(C)C)C(=O)NC(=O)NC1=O [Butalbital] | Insoluble | 
41 | COc1ccc(Cl)cc1C(=O)NCCc1ccc(S(=O)(=O)NC(=O)NC2CCCCC2)cc1 [Glyburide] | Sparingly | 
42 | CCOC(=O)C1=C(COCCN)NC(C)=C(C(=O)OC)C1c1ccccc1Cl (stereo not shown) [Amlodipine] | Slightly | 
43 | CC(C)Cc1ccc(C(C)C(=O)O)cc1 (stereo not shown) [Ibuprofen] | Insoluble | 
44 | Cn1cnc([N+](=O)[O-])c1Sc1ncnc2nc[nH]c12 [Azathioprine] | Insoluble | 

Row | Molecule | Solubility in water [1] | other results
45 | CC1CC(OC(=O)C(O)c2ccccc2)CC(C)(C)C1 (stereo not shown) [Cyclandelate] |  | Bioavailability (in words) (Table 2): Low; Solubility In Water [1]: Insoluble
46 | Nc1nnc(-c2cccc(Cl)c2Cl)c(N)n1 [Lamotrigine] | Slightly | 
47 | COc1cc([C@@H]2c3cc4c(cc3[C@@H](O[C@@H]3O[C@@H]5CO[C@@H](C)O[C@H]5[C@H](O)[C@H]3O)[C@H]3COC(=O)[C@H]23)OCO4)cc(OC)c1O [Etoposide] | Very Slightly | 
48 | Cc1ccc(-c2nc3ccc(C)cn3c2CC(=O)N(C)C)cc1 [Zolpidem] | Sparingly | 
49 | COc1cc(N)c(Cl)cc1C(=O)NC1CCN(CCCOc2ccc(F)cc2)CC1OC (stereo not shown) [Cisapride] | Insoluble | Solubility In Water [1]: Insoluble
50 | COc1cc2nc(N3CCN(C(=O)C4COc5ccccc5O4)CC3)nc(N)c2cc1OC (stereo not shown) [Doxazosin] | Slightly | 
51 | COc1ccc2[nH]c([S+]([O-])Cc3ncc(C)c(OC)c3C)nc2c1 (stereo not shown) [Omeprazole] | Slightly | 
52 | CC[C@H](C)C(=O)O[C@H]1C[C@@H](C)C=C2C=C[C@H](C)[C@H](CC[C@@H]3C[C@@H](O)CC(=O)O3)[C@H]21 [Lovastatin] | Insoluble | Solubility In Water [1]: Insoluble
53 | CC(C(=O)O)c1ccc(-c2ccccc2)c(F)c1 (stereo not shown) [Flurbiprofen] | Slightly | 
54 | CC(C)(C)NC(=O)[C@@H]1C[C@@H]2CCCC[C@@H]2CN1C[C@@H](O)[C@H](Cc1ccccc1)NC(=O)[C@H](CC(N)=O)NC(=O)c1ccc2ccccc2n1 [Saquinavir] | Practically insoluble | 
55 | OCCN(CCO)c1nc(N2CCCCC2)c2nc(N(CCO)CCO)nc(N3CCCCC3)c2n1 [Dipyridamole] | Slightly | 
56 | CCOC(=O)[C@H](CCc1ccccc1)N[C@@H](C)C(=O)N1Cc2ccccc2C[C@H]1C(=O)O [Quinapril] | Insoluble | 
57 | CCOC(=O)C1=C(C)NC(C)=C(C(=O)OC)C1c1cccc(Cl)c1Cl (stereo not shown) [Felodipine] | Insoluble | Solubility In Water [1]: Insoluble
58 | Cc1ncc2n1-c1ccc(Cl)cc1C(c1ccccc1F)=NC2 [Midazolam] | Insoluble | 
59 | CC(C)(C)c1ccc(C(O)CCCN2CCC(C(O)(c3ccccc3)c3ccccc3)CC2)cc1 (stereo not shown) [Terfenadine] | Slightly | 
60 | Cholestyramine | Insoluble | 
61 | COCCCC/C(=N\OCCN)c1ccc(C(F)(F)F)cc1 [Fluvoxamine] | Sparingly | 
62 | Nc1ccc(O)c(C(=O)O)c1 [Mesalamine] |  | Bioavailability (Table 2): Low (˜20%)
63 | CC1=C(/C=C/C(C)=C/C=C/C(C)=C\C(=O)O)C(C)(C)CCC1 [Isotretinoin] | Insoluble | 
64 | CCOC(=O)[C@H](CCc1ccccc1)N[C@@H](C)C(=O)N1[C@H](C(=O)O)C[C@@H]2CCC[C@@H]21 [Ramipril] | Insoluble | 
65 | C[C@@](Cc1ccc(O)c(O)c1)(NN)C(=O)O [Carbidopa] | Slightly | 
